Measurements from US20220323445A1, “REDUCING IMMUNOGENICITY TO PEGLOTICASE” (Horizon Therapeutics Ireland DAC, priority 2020, published 2022).

System: serum uric acid (sUA)
Experiment: Serum uric acid (sUA) levels and sUA responders, open-label study of pegloticase with MTX (NCT03635957)
Type: in vivo, human
Details: mITT
Description: The primary objective is to estimate the response rate during Month 6 (Weeks 20, 22, and 24), as measured by the sustained normalization of serum uric acid (SUA) to <6 mg/dL for at least 80% of the time during Month 6 in subjects receiving KXX with MTX.
The primary efficacy outcome endpoint is the sustained normalization of SUA to <6 mg/dL for at least 80% of the time during month 6 (weeks 20, 22, and 24) in subjects receiving KXX with MTX. This is slightly below the urate solubility threshold and this threshold has been the accepted standard for nearly all modern gout trials. Participants who achieve this endpoint were classified as “responders.” Serum uric acid (SUA) responders may also be defined as participants achieving and maintaining SUA <6 mg/dL for at least 80% of the time during Month 6 (Weeks 20, 22, and 24).
Blood samples may be collected prior to each pegloticase infusion for measurement of SUA levels using the Beckman Coulter AU System Uric Acid procedure. Participants were declared “non-responders” if there were SUA measures >6 mg/dL at 2 consecutive study visits beginning with the week 2 visit. […] If the SUA goal is not maintained before or at the 12-week mark, it was assumed that the participant had developed clinically relevant anti-pegloticase antibody and they received no further infusions. This assumption and subsequent discontinuation of pegloticase was consistent with the protocol of large phase III randomized controlled trials and the product label. A formal stopping rule was 2 occasions of SUA levels of greater than 6 mg/dL.
Clinical Chemistry—Blood samples were collected prior to each pegloticase infusion for measurement of SUA levels (primary efficacy parameter) using the Beckman Coulter AU System Uric Acid procedure. In this procedure uric acid is converted to hydrogen peroxide. Hydrogen peroxide reacts with reagent to produce a chromophore which is read bichromatically at 660/800 nm. The amount of dye formed is proportional to the uric acid concentration in the sample.
Serum samples for measurement of SUA levels were collected at the Screening Visit, the Week −4 Visit (prior to the first dose of MTX), and the Week −2 Visit during the MTX Run-in Period; within 48 hours prior to each pegloticase infusion and after the end of each pegloticase infusion prior to discharge from the site during the Pegloticase+IMM Period; at the non-infusion Week 52/End of Study/Early Termination Visits and at the Post Treatment 3 and 6 Month Follow-up Visits. Additional serum samples for SUA levels were collected at optional non-infusion (Frequent Sampling) Visits at Weeks 1 and 7. […] Subjects with SUA level >6 mg/dL at 2 consecutive visits beginning at Week 2 visit discontinued treatment, completed the End of Pegloticase Infusion Visit procedures within 2 weeks and continued the subject visits according to the protocol (without treatment).
Efficacy analyses were performed using the modified intention-to-treat (mITT) population, defined as all enrolled subjects who received ≥1 dose of pegloticase. The proportion of Month 6 responders was summarized, along with a 95% confidence interval for the proportion. The proportion of Month 3 and overall (Months 3 and 6 combined) responders was analyzed similarly.
A subject was declared a non-responder if the subject had SUA level >6 mg/dL at 2 consecutive study visits beginning with the Week 2 Visit. In addition, a subject who withdraws from study treatment for any reason after the first dose of pegloticase in the KXX+MTX Period and prior to Month 6 (for the primary endpoint) or Month 3 (for the secondary endpoint) was considered a non-responder if SUA values were not collected at the planned time points.
Patients were administered oral MTX (15 mg/week) and folate (1 mg/day) 4 weeks prior to the first pegloticase infusion (Day 1) and throughout the pegloticase treatment period. […]

[1] = Day 1 - Pre-Infusion (after MTX Run-in)

CN(Cc1cnc2nc(N)nc(N)c2n1)c1ccc(C(=O)N[C@@H](CCC(=O)O)C(=O)O)cc1 [MTX, methotrexate]
sUA Change from Methotrexate Baseline, Mean (SD) [1]: 0.25 (1.283) mg/dL
sUA Change from Methotrexate Baseline, Median [1]: -0.25 mg/dL
sUA Observed, Median [1]: 9.00 mg/dL
sUA ≤ 6 mg/dL, n (%) [1]: 1 (7.1%) n (%)
sUA Change from Methotrexate Baseline, Mean (SD) (Week -2 (MTX Run-in Period)): 0.54 (0.839) mg/dL
sUA Change from Methotrexate Baseline, Median (Week -2 (MTX Run-in Period)): 0.50 mg/dL
sUA Observed, Median (Week -2 (MTX Run-in Period)): 9.30 mg/dL
sUA ≤ 6 mg/dL, n (%) (Week -2 (MTX Run-in Period)): 1 (7.1%) n (%)
